Laboratory results reported in patent US20240226108A9, “TREATMENT OF BRAIN INJURIES” (ASTON UNIVERSITY, priority 2021, published 2024).

Legend:
rat brain tissue slices = test: calcein AM cell viability staining of brain slices subjected to hypoxia; assay type: cell-based; details: calcein AM MFI, Maraviroc 50 μM, trifluoperazine 100 μM, 1 hour pre-treatment, 30 minutes hypoxia; for Significant? (Dunn's multiple comparisons test vs. vehicle control): Alpha 0.05; for Mean rank 2 (mean rank of treatment group, Kruskal-Wallis): vehicle control mean rank 11.73
Description: Brain slices were pre-treated for 1 hour with final concentrations of Maraviroc (50 μM), trifluoperazine (100 μM), and both drugs trifluoperazine and maraviroc against vehicle control for 1 hour, before being subjected to 30 minutes of hypoxia.
Damage to the brain tissue was determined by staining the tissue with acetoxymethyl calcein (calcein AM), available from Abcam Ltd, Cambridge, UK and Thermo Fisher, USA. The assay is a quantitative assay used to determine cell viability.

CCR5 = CCR5 (Mus musculus, UniProt P51682); details: compared with CCR5 knockdown; cited from earlier work
Chain of CCR5 (P51682 whole entry): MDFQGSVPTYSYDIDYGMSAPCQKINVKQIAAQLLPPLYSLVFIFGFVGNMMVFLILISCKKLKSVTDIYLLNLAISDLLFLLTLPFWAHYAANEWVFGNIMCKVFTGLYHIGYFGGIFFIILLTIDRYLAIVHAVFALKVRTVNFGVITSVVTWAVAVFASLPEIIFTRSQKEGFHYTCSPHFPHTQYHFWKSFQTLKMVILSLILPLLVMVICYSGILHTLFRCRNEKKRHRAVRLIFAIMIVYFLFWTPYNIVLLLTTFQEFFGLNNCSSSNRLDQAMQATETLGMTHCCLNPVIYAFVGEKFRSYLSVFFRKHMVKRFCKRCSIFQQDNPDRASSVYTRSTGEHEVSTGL

Compound | Significant? (Dunn's multiple comparisons test vs. vehicle control) (rat brain tissue slices) | Mean rank diff. (Dunn's multiple comparisons test, vehicle control vs. treatment) (rat brain tissue slices) | Summary (significance stars, Dunn's multiple comparisons test vs. vehicle control) (rat brain tissue slices) | Z (Dunn's multiple comparisons test vs. vehicle control) (rat brain tissue slices) | Mean rank 2 (mean rank of treatment group, Kruskal-Wallis) (rat brain tissue slices) | motor recovery post-stroke and cognitive decline post traumatic brain injury (CCR5)
CN1CCN(CCCN2c3ccccc3Sc3ccc(C(F)(F)F)cc32)CC1 [TFP, trifluoperazine] | Yes | −25.87 | *** ((***) p≤001) | 4.056 | 37.60 | –
Maraviroc | Yes | −22.07 | ** ((**) p≤0.01) | 3.460 | 33.80 | produced similar effects on motor recovery post-stroke and cognitive decline post traumatic brain injury
